Experimental findings from US9850277B2, “Therapeutically active compositions and their methods of use” (AGIOS PHARMACEUTICALS, INC, priority 2013, dated 2017) are described below.

In test [1] the test system is U87MG cells. Description: Cellular assay, inhibition of 2-HG production in U87MG cells. The note with it: 48 hours. Format: cell-based. The procedure:
Cells (HT1080 or U87MG) are grown in T125 flasks in DMEM containing 10% FBS, 1× penicillin/streptomycin and 500 ug/mL G418 (present in U87MG cells only). They are harvested by trypsin and seeded into 96 well white bottom plates at a density of 5000 cell/well in 100 ul/well in DMEM with 10% FBS. […] Cells are incubated overnight at 37° C. in 5% CO2. The next day test compounds are made up at 2× the final concentration and 100 ul are added to each cell well. The final concentration of DMSO is 0.2% and the DMSO control wells are plated in row G. The plates are then placed in the incubator for 48 hours. […] The cell plate is placed back in the incubator for another 24 hours. At 72 hours post compound addition, 10 mL/plate of Promega Cell Titer Glo reagent is thawed and mixed. The cell plate is removed from the incubator and allowed to equilibrate to room temperature. Then 100 ul of Promega Cell Titer Glo reagent is added to each well of media. The cell plate is then placed on an orbital shaker for 10 minutes and then allowed to sit at room temperature for 20 minutes. The plate is then read for luminescence with an integration time of 500 ms.

Test [2] concerns the target IDH1 R132C (Homo sapiens (Human), UniProt O75874, R132C). As to the kind of experiment: In vitro NADPH depletion assay for IDH1m R132C inhibitors. Format: biochemical. The note with it: IDH1 R132C enzyme, read-out: IDH R132C IC50. The procedure: (§1) A test compound is prepared as 10 mM stock in DMSO and diluted to 50× final concentration in DMSO, for a 50 μl reaction mixture. IDH enzyme activity converting alpha-ketoglutarate to 2-hydroxyglutaric acid is measured using a NADPH depletion assay. In the assay the remaining cofactor is measured at the end of the reaction with the addition of a catalytic excess of diaphorase and resazurin, to generate a fluorescent signal in proportion to the amount of NADPH remaining. […] The reaction is started with the addition of 10 μl of Substrate Mix ([…], 5 mM alpha-ketoglutarate, in Assay Buffer) and the mixture is incubated for 90 minutes at room temperature.
The concentration of NADPH and alpha-ketoglutarate in the Substrate Buffer is 20 μM and 1 mM, respectively.

Test [3] deals with IDH1 R132H (Homo sapiens (Human), UniProt O75874, R132H). Description: In vitro NADPH depletion assay for IDH1m R132H inhibitors. Format: biochemical. The note with it: IDH1 R132H enzyme, read-out: IDH R132H IC50. As for the experimental part:
as §1

Sequence of IDH1 R132H (O75874 whole entry R132H): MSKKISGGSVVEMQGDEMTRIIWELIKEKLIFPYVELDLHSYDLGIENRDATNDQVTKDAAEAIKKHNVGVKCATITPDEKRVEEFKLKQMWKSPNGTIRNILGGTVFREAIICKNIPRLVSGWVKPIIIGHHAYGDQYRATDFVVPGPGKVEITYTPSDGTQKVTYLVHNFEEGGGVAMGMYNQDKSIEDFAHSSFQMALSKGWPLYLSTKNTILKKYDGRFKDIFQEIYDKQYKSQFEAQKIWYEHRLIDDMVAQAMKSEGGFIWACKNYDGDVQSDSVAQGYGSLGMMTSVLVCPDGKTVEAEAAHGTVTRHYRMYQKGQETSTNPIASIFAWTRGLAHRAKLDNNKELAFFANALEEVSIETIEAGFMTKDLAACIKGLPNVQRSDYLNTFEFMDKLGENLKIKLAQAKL
Sequence of IDH1 R132C (O75874 whole entry R132C): as the sequence (O75874 whole entry R132H) above, with H132C counted along it

“(S)—N—((S)-1-(2-Chlorophenyl)-2-(3,3-difluorocyclobutylamino)-2-oxoethyl)-N-(3-cyano-5-fluorophenyl)-3-(3-cyanophenyl)-2-oxooxazolidine-4-carboxamide [Compound 134]”: the IC50 in test [1] is less than 100 nM.

As to `O=C(NC1CC(F)(F)C1)[C@H](c1ccccc1Cl)N(C(=O)[C@@H]1CCC(=O)N1c1nccc2ccccc12)c1cccc(F)c1` [Compound 16], the concentration for half-maximal inhibition (IC50) in test [2] and in test [3] was 100 to 500 nM in each case.

`N#Cc1cccc(N2C(=O)OC[C@H]2C(=O)N(c2cccc3cn[nH]c23)[C@H](C(=O)NC2CCC(F)(F)CC2)c2ccccc2Cl)c1` [Compound 142, (S)—N—((S)-1-(2-Chlorophenyl)-2-(4,4-difluorocyclohexylamino)-2-oxoethyl)-3-(3-cyanophenyl)-N-(1H-indazol-7-yl)-2-oxooxazolidine-4-carboxamide] displayed an IC50 in test [1] of less than 100 nM.

Take `COc1cccnc1N1C(=O)CC[C@H]1C(=O)N(c1cccc(F)c1)[C@H](C(=O)NC1CC(F)(F)C1)c1ccccc1Cl` [Compound 17]: in test [3], the IC50 was 100 to 500 nM.

Turning to “(S)—N—((S)-1-(2-Chlorophenyl)-2-(3,3-difluorocyclobutylamino)-2-oxoethyl)-1-(3-cyano-phenyl)-N-(1H-indazol-7-yl)-5-oxopyrrolidine-2-carboxamide [Compound 186]”, in test [1], the IC50 was less than 100 nM.

Take `O=C(NC1CC(F)(F)C1)C(c1ccccc1Cl)N(C(=O)[C@@H]1CCC(=O)N1c1cccnc1)c1cccc(F)c1` (stereo partly shown) [Compound 10]: in test [3], the IC50 lay in the range of 100 to 500 nM.

On to “(S)-tert-butyl 3-(((S)-1-(2-chlorophenyl)-2-((3,3-difluorocyclobutyl) amino)-2-oxoethyl)(3,5-difluorophenyl)carbamoyl)-5-oxopiperazine-1-carboxylate [Compound 97]”, for which, in test [1], the IC50 is less than 100 nM.

In test [1], “(S)-1-(4-Cyanopyridin-2-yl)-N—((S)-1-(2,4-dichlorophenyl)-2-((3,3-difluorocyclobutyl)-amino)-2-oxoethyl)-N-(3,5-difluorophenyl)-5-oxopyrrolidine-2-carboxamide [Compound 196]” showed an IC50 of less than 100 nM.

With “(S)—N—((S)-1-(2-Chlorophenyl)-2-((3,3-difluorocyclobutyl)amino)-2-oxoethyl)-1-(4-cyanopyridin-2-yl)-N-(1H-indazol-6-yl)-5-oxopyrrolidine-2-carboxamide [Compound 205]”, the IC50 in test [1] is less than 100 nM.

In the case of “(S)—N—((S)-1-(2-Chlorophenyl)-2-((4,4-difluorocyclohexyl)amino)-2-oxoethyl)-1-(4-cyanopyridin-2-yl)-N-(1H-indazol-6-yl)-5-oxopyrrolidine-2-carboxamide [Compound 136]”, the IC50 in test [1] was less than 100 nM.

Regarding `O=C(NC1CC(F)(F)C1)[C@H](c1ccccc1Cl)N(C(=O)[C@@H]1CCC(=O)N1c1cccc(F)n1)c1cccc(F)c1` [Compound 11], the IC50 in test [2] and in test [3] was 100 to 500 nM throughout.

By IC50 is commonly meant the concentration that inhibits the measured activity by half.
